Each structure is given as a SMILES string. Structures can show the parent of a compound that is named as a salt. Where two headings read alike, the source gives them in different places.

In series [1] the test system is PEX405 cells. The class given is cell-based. Conditions: 3 days, PI positive cells (dead cells).
Experimental: (§4) Images were acquired using the EnSight multimode plate reader (PerkinElmer) and analysis was done using Columbus analysis software (PerkinElmer). […] Then the total number of cells and the % of dead cells was calculated.
(§5) All HDAC inhibitors were tested at 1.3 and 10 µM for 3 days on GM16513 and PEX405 cells.
The subject of series [2] is GM16513 cells. The experiment in a line: Plasmalogens synthesis (LC-MS/MS). The class given is cell-based, human. As to the method:
(§1) The assay was performed in T75 culture flasks for 3 or 10 days. The medium was replaced by fresh medium every 2-3 days. After 3 or 10 days, the cells were harvested and lysated in water (100-200 µL) by freeze/thaw cycle and sonication for 5 min. Total proteins were quantified using BCA assay and 100 µg of total proteins were used for each sample.
(§2) After cell lysis, the samples were dried using a rotating evaporator (Genevac EZ-2, SP Scientific), set at 40°C for 2h under vacuum. Then a solution containing water/acetonitrile 20/80 v/v was added to the wells. Before analysis, the samples were centrifuged at 4000 rpm for 20 min at room temperature. For the separation of plasmalogens by liquid chromatography, a Waters Acquity ultra-performance liquid chromatography (UPLC) system (Acquity I-Class, Waters) was used. A Waters Acquity UPLC BEH (Ethylene Bridged Hybrid) C8 column (2.1 × 50mm, particle size 1.7 µm, pore size 130 A, 2.1mm inner diameter) preceded by a metal pre-filter (KrudKatcher Ultra HPLC In-Line Filter, AF0-8497, Phenomenex) was used for separation. The column temperature was maintained at 50°C. The injection volume was 5µL for each analysis. The mobile phase A was composed of water + 0.1% formic acid and the mobile phase B was methanol + 0.1% formic acid. The separation was done using a gradient, with a flow rate set at 0.7 mL/min throughout the separation:
(§3) During analysis, the samples were kept at 10°C, and 5 µL of each sample were injected. After separation by liquid chromatography, the analytes were subjected to MS/MS analysis using a Waters Xevo TQSmicro system (Waters). The analytes were ionized using positive electrospray ionization (positive ESI). The molecules were analyzed using MRM mode. The analyzed plasmalogens contained moieties with C16:0, C18:0, C18:1 at the sn-1 position and fatty acid of chain-length 18 to 24 with 1 to 6 unsaturations at the sn-2 position. […] The cellular levels of plasmalogens were calculated using the area of each plasmalogen divided by protein quantity. […] The acquired data were analyzed by the Waters MassLynx software.

Series [3] has as its system GM16513 cells. The format is cell-based. Conditions: 3 days, PI positive cells (dead cells).
Experimental: as §4, §5
For series [4], the system named is PEX405 cells. Kind of series: Plasmalogens synthesis (LC-MS/MS). The format is cell-based, human. Conditions: treatment over 3 days. As to the method: as §1, §2, §3
Series [5] concerns PEX405 cells. The experiment in a line: Beta-oxidation of d4-C24:0 (LC-MS/MS). The format is cell-based, human. Conditions: 3 days of treatment, dose response manner. As to the method:
Degradation (to d4-C16:0) and elongation (to d4-C26:0 and d4-C28:0) of d4-VLCFA (very long chain fatty acid) in the cells was measured using d4-C24:0 as substrate (D-6145-CDN isotopes). D4-C24:0 was solubilized in culture medium using α-cyclodetrin, with a molar ratio of d4-C24:0:α-cyclodextrin 1:50. Cyclodextrins, which are cyclic oligosaccharides, are commonly used to solubilize fatty acids by complexation, for supplementation of cell culture media, and serve as vehicle to deliver fatty acids to the cells. Cyclodextrins have a polar surface and a hydrophobic cylindrical cavity that can bind and solubilize a wide variety of hydrophobic molecules, such as fatty acids, while remaining soluble in water. The assay was performed in T75 culture flasks for 3 or 10 days. The medium was replaced by fresh medium every 2-3 days and supplemented with d4-C24:0 for the last 3 days. After 3 or 10 days, cells were harvested and lysated in water (100-200 µL) by freeze/thaw cycle and sonication for 5 min. Total proteins were quantified using BCA assay and 100 µg of total proteins were used for each sample.
After cell lysis, the samples were dried using a rotating evaporator (Genevac EZ-2, SP Scientific), set at 40°C for 2h under vacuum. After evaporation, a hydrolysis mix consisting of 90% acetonitrile and 10% NaOH 1N in water was added to the samples. The samples were incubated for 1h at room temperature under stirring (300 rpm). After hydrolysis, the samples were evaporated using a Genevac device, under vacuum, at 40°C for 2h.
Derivation of free fatty acids was done using a 2.5 mg/mL Na2CO3 solution in DMF and a 2.5 mg/mL TMAE (trimethylammoniumethyl) reagent solution in DMF. The solutions were mixed in a 1:1 ratio, and 200 µL of the mix was added to dry samples to be derived. For the derivation, the samples were incubated for 3h at 50°C. DMF was then evaporated using a Genevac™ device, under vacuum, at 60°C for 4h.
Before injection, the samples were solubilized in a 90/10 acetonitrile/isopropanol mixture with 1% HCl. After solubilization, the samples were stirred and centrifuged at 4000 rpm for 20 min at 10°C.
For the separation of the derived fatty acids by liquid chromatography, a Waters Acquity ultra-performance liquid chromatography (UPLC) system (Acquity I-Class, Waters) was used. […]
After separation by liquid chromatography, the analytes were subjected to MS analysis using a Waters Xevo TQSmicro system (Waters). […] The molecules were analyzed using MRM (multiple reaction monitoring) mode, with the main daughter ion for each derived fatty acid corresponding to the loss of a trimethylammonium moiety (m/z 59). Derived FAs with a chain length from 16 to 28, with no or one unsaturation, were analyzed. […] The acquired data were analyzed by the Waters MassLynx software.

As for `O=C(/C=C/c1cccc(S(=O)(=O)Nc2ccccc2)c1)NO` [Belinostat], the “% PI+ cells” value in the series with PEX405 cells [1] (1.3 µM) was 1%; in the series with PEX405 cells [1] (10 µM), 42%; in the series on GM16513 cells [3] (1.3 µM) it was 4%; in the series on GM16513 cells [3] (10 µM), 21%. Further, the plasmalogen levels result with GM16513 cells [2] (0.5 µM over 3 or 10 days) is “increased”.
As to `CCN(CC)Cc1ccc2cc(COC(=O)Nc3ccc(C(=O)NO)cc3)ccc2c1` [Givinostat (hydrochloride monohydrate), Givinostat], the “% PI+ cells” value in the series on PEX405 cells [1] (1.3 µM) turned out to be 3%; with PEX405 cells [1] (10 µM), 41%; in the series on GM16513 cells [3] (1.3 µM), 6%; in the series on GM16513 cells [3] (10 µM), 29%. Also, the plasmalogen levels entry in the series on GM16513 cells [2] (treatment over 3 days) and in the series with PEX405 cells [4] was “increased” each time. Besides, the “d4-C16,C18,C20 and C22 levels” value in the series with PEX405 cells [5] was “increase”.
